Results from publication PMC6429214, “Design, Synthesis and Biological Evaluation of Isoxazole-Based CK1 Inhibitors Modified with Chiral Pyrrolidine Scaffolds” (Molecules, 2019).

Tests used:
[1] = LC-MS of aqueous solutions with and without PEG; format: physicochemical; conditions: LC-MS over 7 days, not in solutions without PEG
From the text: Since all analytical data for the originally employed inhibitors was consistent with the given structures, we postulate that the incorporation of an additional methylene group occurred via spontaneous Pictet-Spengler cyclization during crystallization. In line with this notion, PEG, which has been used in our soaking solutions, is known to generate formaldehyde traces that have been shown in the past to affect the derivatization of both, proteins and ligands. To further corroborate this hypothesis, we examined whether simple exposure of 29d/e to formaldehyde would give rise to the same Pictet-Spengler products 31a/b (Scheme 5). Indeed, when compounds 29d/e were treated with formaldehyde at room temperature 31a/b were formed readily and the obtained spectroscopic data was consistent with the predicted Pictet-Spengler products. In addition, aqueous solutions of 29d and 29e with and without PEG were analyzed by liquid chromatography-mass spectrometry (LC-MS) over a period of 7 days.
LC-MS was performed with a Bruker Esquire ~LC ion trap mass spectrometer (Bremen, Germany) in the positive ion mode (dry gas 9 L/min, nebulizer 35 psi, drying temperature 350 °C) after chromatographic separation using an Agilent 1100 HPLC system (Waldbronn, Germany) with a RP-8 column (Agilent Eclipse XDB-C8, 150 × 4.6 mm, 5 μm) and a 0.1% acetic acid/acetonitrile gradient.

KIT = molecular target: T1, KIT (Homo sapiens, UniProt P10721); experiment: 33PanQinase panel; format: biochemical; conditions: read-out: Residual Activity (%)
T1 construct: purchased ProQinase
Protocol: (§1) Figure 5 Dendrogram representation of the selectivity profile of 29d at a concentration of 1 μM in a panel of 320 wild-type kinases (ProQinase, Freiburg, Germany). The residual kinase activity was determined compared to DMSO control. Images were generated using TREEspot Software Tool, DISCOVERX CORPORATION 2010. […]
(§2) Table S2. Selectivity profile of compound 29d. The inhibitor has been screened at a concentration of 1 µM over a panel of 320 wild-type protein kinases by ProQinase GmbH (Freiburg, Germany) using an activity-based radiometric 33PanQinase® assay. Results are presented as percentage of residual kinase activity relative to […]
(§3) control. The final DMSO concentration was 1 % in each reaction-mix. Classification of protein kinase families refers to Manning et al. (Manning, G.; Whyte, D. B.; Martinez, R.; Hunter, T.; Sudarsanam, S. The Protein Kinase Complement of the Human Genome. Science 2002, 298, 1912–1934): AGC = containing PKA, PKG, PKC families; […] = containing Cdk, MAPK, GSK3, CLK families; STE = homologs of yeast sterile 7, sterile 11, sterile 20 kinases; TK = tyrosine kinase; TKL = tyrosine kinase-like.
(§4) Kinase name Kinase family Residual Activity (%)

DAPK2 = molecular target: T2, DAPK2 (Homo sapiens, UniProt Q9UIK4); experiment: 33PanQinase panel; format: biochemical; conditions: DAPK2, 1 µM; read-out: Residual Activity (%)
T2 construct: purchased ProQinase
Protocol: as §1, §2, §3, §4

human GST-CK1ε = molecular target: T3, human GST-CK1ε (Homo sapiens, UniProt P49674); experiment: in-vitro kinase assay CK1ε; format: biochemical; conditions: 10 µM ATP, mean ± SD, n = 3
T3 construct: purchased Invitrogen PV3500
Protocol: (§5) In vitro kinase assays have been performed to both screen, as well as to calculate IC50 values of the compounds for CK1δ and ε. Each reaction was carried out using 2 μCi ^32P-γ-ATP in kinase buffer containing 25 mM Tris-HCl (pH = 7.5), 10 mM MgCl2, 100 µM EDTA, and 10 µM ATP. […] Recombinant human CK1δ transcription variant 1 (expressed and purified as GST fusion protein as described earlier) and human GST-CK1ε (PV3500; Invitrogen) were used as sources of enzyme, while α-casein (C6780; Sigma-Aldrich) was used as substrate. Kinase reactions were incubated for 30 min at 30 °C and then stopped with loading dye (50 mM Tris-HCl (pH = 6.8), 5% (v/v) β-mercaptoethanol (MSH), 10% (v/v) glycerol, 2% (w/v) sodium dodecyl sulfate (SDS), 0.1% (w/v) bromphenol blue). Subsequently, reactions were separated by sodium dodecyl sulfate polyacrylamide gel electrophoresis (SDS-PAGE) and phosphorylated protein bands were visualized on dried gels by autoradiography. The phosphorylated substrate protein bands were excised, and phosphorylation was quantified by Cherenkov counting. Dose-response analyses and calculation of IC50 values were carried out using GraphPad Prism 6 statistical software (San Diego, CA, USA).

MCF-7 cells = experiment: MTT cell viability assay MCF-7; format: cell-based, human; conditions: Homo sapiens, MCF7, 48 h, mean ± SD
Protocol: (§6) The human colon adenocarcinoma cell line HT-29 was grown in McCoy’s 5A medium, whereas MCF7 cells were grown in DMEM medium. All media were supplemented with 10% fetal calf serum (FCS), 100 units/mL penicillin, 100 µg/mL streptomycin and 2 mM glutamine. All cells were grown at 37 °C in a humidified 5% carbon dioxide atmosphere.
(§7) In order to analyze the effects of selected inhibitors on the cell viability of HT-29 and MCF7 cells, MTT assays were performed. 1 × 10^4 cells/well were seeded in 96-well cell culture plates. After 24 h cells were treated with increasing concentrations of the indicated inhibitor compounds, with untreated and DMSO-treated cells as control. After an incubation period of 48 h, 10 µL of MTT solution (5 mg/mL in PBS) were added and cells were incubated for 4 h. MTT-containing medium was carefully removed and 100 µL acidic isopropanol (0.04 N HCl in isopropanol) per well were added. To dissolve formazan crystals, plates were shaken for 30 min on an orbital shaker in the dark. Finally, dissolved crystals were measured spectrophotometrically at 570 nm. All experiments were performed in triplicate with four technical replicates per assay. Results were normalized considering the mean optical density value of control wells as 100%. GraphPad Prism 6 software (San Diego, CA, USA) was used to calculate EC50 values.

HT-29 cells = experiment: MTT cell viability assay HT-29; format: cell-based, human; conditions: Homo sapiens, HT-29, 48 h, mean ± SD
Protocol: as §6, §7

[2] = molecular target: T4, human CK1δ transcription variant 1 (Homo sapiens, UniProt P48730); experiment: in-vitro kinase assay CK1δ; format: biochemical; conditions: 10 µM ATP, mean ± SD, n = 3
T4 construct: made in house; own knowledge
From the text: Human CK1δ transcription variant 1 (CK1δ TV1_NM_001893.4) has been amplified from the cDNA obtained from HT1080 cell line, using CK1δ_forward-primer: 5′-GGATCCATGGAGCTGAGAGTCGGGAACAG-3′ and CK1δ_reverse primer: 5′-GGATCCTCATCGGTGCACGACAGACTGA-3′. The CK1δ DNA construct was cloned into pSC-A cloning vector (Agilent technologies, Munich, Germany) with BamHI enzyme, to generate plasmids pGEX6-P3-GST-CK1δ TV1 (FP1417). Overexpression and purification of GST-CK1δ TV1 protein has been performed as described before.
as §5

T3 sequence (P49674 whole entry): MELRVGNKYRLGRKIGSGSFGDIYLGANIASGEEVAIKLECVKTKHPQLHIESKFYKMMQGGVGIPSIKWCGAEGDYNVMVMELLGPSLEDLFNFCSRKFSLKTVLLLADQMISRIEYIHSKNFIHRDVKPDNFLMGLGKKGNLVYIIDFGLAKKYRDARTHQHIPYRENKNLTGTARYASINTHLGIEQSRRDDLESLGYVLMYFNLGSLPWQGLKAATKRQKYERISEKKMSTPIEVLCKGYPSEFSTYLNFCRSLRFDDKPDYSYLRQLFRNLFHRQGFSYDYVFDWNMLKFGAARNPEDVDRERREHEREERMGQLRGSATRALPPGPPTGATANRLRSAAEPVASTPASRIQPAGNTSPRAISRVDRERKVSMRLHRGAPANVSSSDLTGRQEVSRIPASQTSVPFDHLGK
T1 sequence (P10721 26-976): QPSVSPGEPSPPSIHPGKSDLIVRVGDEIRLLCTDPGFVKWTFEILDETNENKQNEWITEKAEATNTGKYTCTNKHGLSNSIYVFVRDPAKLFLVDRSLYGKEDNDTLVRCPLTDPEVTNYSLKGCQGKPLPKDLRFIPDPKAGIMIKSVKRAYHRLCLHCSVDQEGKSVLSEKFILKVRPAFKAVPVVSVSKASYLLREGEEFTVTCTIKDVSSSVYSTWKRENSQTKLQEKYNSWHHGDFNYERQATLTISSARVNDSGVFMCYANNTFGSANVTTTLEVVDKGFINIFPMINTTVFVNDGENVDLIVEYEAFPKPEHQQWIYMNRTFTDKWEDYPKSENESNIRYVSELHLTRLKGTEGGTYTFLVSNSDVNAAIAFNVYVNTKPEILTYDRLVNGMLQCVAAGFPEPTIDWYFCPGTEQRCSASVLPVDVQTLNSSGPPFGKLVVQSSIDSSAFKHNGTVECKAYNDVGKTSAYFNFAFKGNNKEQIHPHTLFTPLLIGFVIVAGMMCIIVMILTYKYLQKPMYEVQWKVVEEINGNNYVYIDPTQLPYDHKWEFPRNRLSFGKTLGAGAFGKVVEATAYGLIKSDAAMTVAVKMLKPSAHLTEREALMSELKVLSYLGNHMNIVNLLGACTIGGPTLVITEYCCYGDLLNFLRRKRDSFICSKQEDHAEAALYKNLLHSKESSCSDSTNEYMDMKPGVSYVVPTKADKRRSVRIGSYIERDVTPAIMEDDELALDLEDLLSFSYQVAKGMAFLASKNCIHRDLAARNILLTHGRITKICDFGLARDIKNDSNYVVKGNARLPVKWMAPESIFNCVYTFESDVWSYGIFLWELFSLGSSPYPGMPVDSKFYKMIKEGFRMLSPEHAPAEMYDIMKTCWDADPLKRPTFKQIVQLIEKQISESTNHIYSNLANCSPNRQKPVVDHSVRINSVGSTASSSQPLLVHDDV
T2 sequence (Q9UIK4 whole entry): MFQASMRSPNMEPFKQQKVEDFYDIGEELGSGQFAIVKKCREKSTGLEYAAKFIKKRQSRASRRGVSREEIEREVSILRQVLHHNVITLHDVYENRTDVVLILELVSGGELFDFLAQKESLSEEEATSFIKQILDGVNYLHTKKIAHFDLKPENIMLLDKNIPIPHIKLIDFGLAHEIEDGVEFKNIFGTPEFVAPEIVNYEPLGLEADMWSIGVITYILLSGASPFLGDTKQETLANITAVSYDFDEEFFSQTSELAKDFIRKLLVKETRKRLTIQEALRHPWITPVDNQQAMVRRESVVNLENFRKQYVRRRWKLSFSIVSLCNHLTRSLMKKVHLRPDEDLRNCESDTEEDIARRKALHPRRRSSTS

Q: For `COc1ccc(-c2cc(C(=O)Nc3cc(-c4c(-c5ccc(F)cc5)noc4C(C)C)ccn3)n(CC3NCC(O)C3O)c2)cc1` (stereo not drawn) [29d], which “formation of Pictet-Spengler products in aqueous solution with PEG” value [1] is on record?
A: significant product formation

Q: What about the remaining activity at 1 µM (KIT) of the same compound?
A: 102%

Q: And the remaining activity at 1 µM (DAPK2)?
A: 96%

Q: What about the IC50 (human GST-CK1ε) of the same compound?
A: 0.065 ± 0.012 µM

Q: What about the remaining activity at 10 µM (human GST-CK1ε; 10 µM compound, read-out: CK1ε Residual Activity [%] at 10 µM ± SD) of the same compound?
A: 12 ± 2%

Q: What about the viability at 5 µM (MCF-7 cells; 5 µM) of the same compound?
A: 100 ± 16%

Q: What about the viability at 10 µM (MCF-7 cells; 10 µM) of the same compound?
A: 76 ± 19%

Q: And the viability at 20 µM (MCF-7 cells; 20 µM)?
A: 5.6 ± 1.5%

Q: And the EC50 (MCF-7 cells)?
A: 10 ± 2 µM

Q: And the viability at 5 µM (HT-29 cells; 5 µM)?
A: 76 ± 13%

Q: And the viability at 10 µM (HT-29 cells; 10 µM)?
A: 51 ± 8%

Q: What about the viability at 20 µM (HT-29 cells; 20 µM) of the same compound?
A: 14 ± 2%

Q: And the EC50 (HT-29 cells)?
A: 8 ± 1.7 µM

Q: And the IC50 [2]?
A: 0.038 ± 0.003 µM

Q: What about the remaining activity at 10 µM ([2]; 10 µM compound, read-out: CK1δ Residual Activity [%] at 10 µM ± SD) of the same compound?
A: 2.9 ± 0.3%
